Source: patent US20240285705A1, “AQUEOUS EXTRACTION OF CANNABINOIDS” (Curaleaf, Inc., priority 2023, published 2024)

Assay: Solubilization of cannabinoids in NaOH and KOH solutions
Format: physicochemical
Method: Concentration Selection: NaOH and KOH solutions having concentrations ranging from 0M to 2M were prepared and tested for their ability to solubilize D9THCA and CBDA. […] All forms of cannabinoids were extracted using NaOH and KOH. It was also determined that neutral cannabinoids were removed from the plant to a much less extent during base extraction.

Row | SMILES | Solubility (NaOH and KOH solutions, concentrations ranging from 0M to 2M) | Degradation by strong base (NaOH/KOH solution above 0.3M)
1 | C=C(C)[C@@H]1CCC(C)=C[C@H]1c1c(O)cc(CCCCC)c(C(=O)O)c1O [CBDA, cannabidolic acid] | higher than D9THC | –
2 | CCCCCc1cc2c(c(O)c1C(=O)O)[C@@H]1C=C(C)CC[C@H]1C(C)(C)O2 [D9THCA, tetrahydrocannabinolic acid] | – | begins to noticeable degrade
